Experimental data reported in ChEMBL document CHEMBL1649389, “Microwave supported synthesis of some novel 1,3-diarylpyrazino[1,2-a]benzimidazole derivatives and investigation of their anticancer activities” (2011).

Legend:
Assay type in all cases: functional
[1] = Cytotoxicity against human melanoma cells assessed as cell growth after 48 hrs by SRB assay
NSCLC = test: Cytotoxicity against human NSCLC cells assessed as cell growth after 48 hrs by SRB assay
[2] = Cytotoxicity against human breast cancer cells assessed as cell growth after 48 hrs by SRB assay; settings: Cancer cell lines
[3] = Cytotoxicity against human renal cancer cells assessed as cell growth after 48 hrs by SRB assay; settings: Cancer cell lines
[4] = Cytotoxicity against human ovarian cancer cells assessed as cell growth after 48 hrs by SRB assay; settings: Cancer cell lines
[5] = Cytotoxicity against human CNSC cells assessed as cell growth after 48 hrs by SRB assay
[6] = Cytotoxicity against human prostate cancer cells assessed as cell growth after 48 hrs by SRB assay; settings: Cancer cell lines
[7] = Cytotoxicity against human colon cancer cells assessed as cell growth after 48 hrs by SRB assay; settings: Cancer cell lines
[8] = Cytotoxicity against human leukemia cells assessed as cell growth after 48 hrs by SRB assay

| SMILES | GI50 [1] | GI50 (NSCLC) | GI50 [2] | GI50 [3] | GI50 [4] | GI50 [5] | GI50 [6] | GI50 [7] | GI50 [8] |
| --- | --- | --- | --- | --- | --- | --- | --- | --- | --- |
| COc1ccc(C(=O)Cn2c(C(=O)c3ccc(OC)cc3)nc3ccccc32)cc1 | 3.24 µM | 15.1 µM | 2.4 µM | 3.89 µM | 3.02 µM | 3.31 µM | 2.95 µM | 1.26 µM | 741 nM |
| O=C(Cn1c(C(=O)c2ccccc2)nc2ccccc21)c1ccccc1 | 100 µM | 69.2 µM | 9.33 µM | 87.1 µM | 100 µM | 83.2 µM | 72.4 µM | 63.1 µM | 52500 nM |
| COc1ccc(C(=O)Cn2c(C(=O)c3ccccc3)nc3ccccc32)cc1 | 2.95 µM | 9.33 µM | 2.24 µM | 3.24 µM | 3.63 µM | 3.98 µM | 3.24 µM | 1.51 µM | 724 nM |
| O=C(Cn1c(C(=O)c2ccccc2)nc2ccccc21)c1ccc(F)cc1 | 4.57 µM | 18.6 µM | 3.98 µM | 2.75 µM | 10.7 µM | 8.51 µM | 13.5 µM | 3.55 µM | 1410 nM |
| COc1ccc(C(=O)c2nc3ccccc3n2CC(=O)c2ccc(Cl)cc2)cc1 | 2.45 µM | 14.5 µM | 3.47 µM | 3.72 µM | 5.25 µM | 3.39 µM | 3.02 µM | 2.51 µM | 724 nM |
| COc1ccc(C(=O)Cn2c(C(=O)c3ccc(Cl)cc3)nc3ccccc32)cc1 | 9.55 µM | 18.6 µM | 6.17 µM | 14.1 µM | 17.8 µM | 16.6 µM | 24 µM | 5.01 µM | 2570 nM |
| N[C@@H](Cc1ccc(N(CCCl)CCCl)cc1)C(=O)O | 8.32 µM | 6.76 µM | 16.2 µM | 10.2 µM | 6.61 µM | 7.59 µM | 32.4 µM | 7.76 µM | 3310 nM |
